# Test results reported in patent US20250230154A1, “COMPOUND HAVING SHP2 PROTEIN DEGRADING ACTIVITY, AND MEDICAL USES THEREOF” (UBIX THERAPEUTICS, INC., priority 2021, published 2025).
# Biological target: T1, SHP2 protein (Homo sapiens, UniProt Q06124)
# T1 sequence (Q06124 1-593): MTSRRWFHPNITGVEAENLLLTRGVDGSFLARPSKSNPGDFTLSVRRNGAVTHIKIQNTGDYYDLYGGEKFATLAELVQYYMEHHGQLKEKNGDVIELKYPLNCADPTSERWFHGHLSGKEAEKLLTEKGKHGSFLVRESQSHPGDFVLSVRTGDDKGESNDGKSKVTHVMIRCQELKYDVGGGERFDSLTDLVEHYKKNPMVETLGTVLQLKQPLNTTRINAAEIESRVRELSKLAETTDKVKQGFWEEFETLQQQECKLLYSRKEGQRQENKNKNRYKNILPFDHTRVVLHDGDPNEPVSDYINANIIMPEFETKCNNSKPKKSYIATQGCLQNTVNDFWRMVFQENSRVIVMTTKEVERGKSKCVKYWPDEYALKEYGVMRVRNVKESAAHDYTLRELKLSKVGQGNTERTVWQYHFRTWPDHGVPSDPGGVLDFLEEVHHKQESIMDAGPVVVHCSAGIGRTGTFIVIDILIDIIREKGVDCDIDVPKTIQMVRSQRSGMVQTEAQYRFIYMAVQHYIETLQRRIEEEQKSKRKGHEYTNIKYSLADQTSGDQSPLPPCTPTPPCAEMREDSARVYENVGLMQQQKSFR
# Test: Measurement of SHP2 protein degradation in MV-4-11 cells (western blotting)
# Assay type: cell-based
# Parameters: endogenous in cells; host or cells: MV-4-11
# Details: MV-4-11 cells, 24 hours
# Outline: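 SHP2 protein levels were assessed by western blotting in MV-4-11 cells after a 24 hour compound treatment. Lysates were sonicated, centrifuged, normalized by BCA assay at 562 nm, run on Bis-tris 4-12% gels, transferred to NC membrane, probed with anti-SHPTP2 (70 kDa) and anti-GAPDH (37 kDa) antibodies, and detected on LI-COR Odyssey.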
SMILES,SHP2 degradation (%) 10 nM,SHP2 degradation (%) 100 nM,SHP2 degradation (%) 1000 nM
"CC(=O)N[C@H](C(=O)N1C[C@H](O)C[C@H]1C(=O)NCc1ccc(-c2scnc2C)cc1OCCN1CCN(C(=O)CC(=O)Nc2cccc(Sc3cnc(N4CCC(C)(CN)CC4)cn3)c2Cl)CC1)C(C)(C)C [Example 57, (2S,4R)-1-((S)-2-acetamido-3,3-dimethylbutanoyl)-N-(2-(2-(4-(3-((3-((5-(4-(aminomethyl)-4-methylpiperidin-1-yl)pyrazin-2-yl)thio)-2-chlorophenyl)amino)-3-oxopropanoyl)piperazin-1-yl)ethoxy)-4-(4-methylthiazol-5-yl)benzyl)-4-hydroxypyrrolidine-2-carboxamide]",95.7%,99.8%,99.7%
"Cc1ncsc1-c1ccc(CNC(=O)[C@@H]2C[C@@H](O)CN2C(=O)[C@@H](NC(=O)C2(F)CC2)C(C)(C)C)c(OCCC2CCN(C(=O)CC(=O)Nc3cccc(Sc4cnc(N5CCC(C)(CN)CC5)cn4)c3Cl)CC2)c1 [Example 36, (2S,4R)—N-(2-(2-(1-(3-((3-((5-(4-(aminomethyl)-4-methylpiperidin-1-yl)pyrazin-2-yl)thio)-2-chlorophenyl)amino)-3-oxopropanoyl)piperidin-4-yl)ethoxy)-4-(4-methylthiazol-5-yl)benzyl)-1-((S)-2-(1-fluorocyclopropane-1-carboxamido)-3,3-dimethylbutanoyl)-4-hydroxypyrrolidine-2-carboxamide]",83.0%,93.5%,93.5%
"Cc1ncsc1-c1ccc(CNC(=O)[C@@H]2C[C@@H](O)CN2C(=O)[C@@H](NC(=O)C2(F)CC2)C(C)(C)C)c(OCCN2CCN(CC(=O)Nc3cccc(Sc4cnc(N5CCC(C)(CN)CC5)cn4)c3Cl)CC2)c1 [Example 72, (2S,4R)—N-(2-(2-(4-(2-((3-((5-(4-(aminomethyl)-4-methylpiperidin-1-yl)pyrazin-2-yl)thio)-2-chlorophenyl)amino)-2-oxoethyl)piperazin-1-yl)ethoxy)-4-(4-methylthiazol-5-yl)benzyl)-1-((S)-2-(1-fluorocyclopropane-1-carboxamido)-3,3-dimethylbutanoyl)-4-hydroxypyrrolidine-2-carboxamide]",5.1%,85.6%,–
"Cc1ncsc1-c1ccc(CNC(=O)[C@@H]2C[C@@H](O)CN2C(=O)[C@@H](NC(=O)C2(F)CC2)C(C)(C)C)c(OCCC2CCN(C(=O)C(=O)Nc3cccc(Sc4cnc(N5CCC(C)(CN)CC5)cn4)c3Cl)CC2)c1 [Example 27, (2S,4R)—N-(2-(2-(1-(2-((3-((5-(4-(aminomethyl)-4-methylpiperidin-1-yl)pyrazin-2-yl)thio)-2-chlorophenyl)amino)-2-oxoacetyl)piperidin-4-yl)ethoxy)-4-(4-methylthiazol-5-yl)benzyl)-1-((S)-2-(1-fluorocyclopropane-1-carboxamido)-3,3-dimethylbutanoyl)-4-hydroxypyrrolidine-2-carboxamide]",23.5%,72%,91.5%
"CC(=O)N[C@H](C(=O)N1C[C@H](O)C[C@H]1C(=O)NCc1ccc(-c2scnc2C)cc1OCCCN1CCN(C(=O)CC(=O)Nc2cccc(Sc3cnc(N4CCC(C)(CN)CC4)cn3)c2Cl)CC1)C(C)(C)C [Example 61, (2S,4R)-1-((S)-2-acetamido-3,3-dimethylbutanoyl)-N-(2-(3-(4-(3-((3-((5-(4-(aminomethyl)-4-methylpiperidin-1-yl)pyrazin-2-yl)thio)-2-chlorophenyl)amino)-3-oxopropanoyl)piperazin-1-yl)propoxy)-4-(4-methylthiazol-5-yl)benzyl)-4-hydroxypyrrolidine-2-carboxamide]",87.3%,99.4%,–
"Cc1ncsc1-c1ccc(CNC(=O)[C@@H]2C[C@@H](O)CN2C(=O)[C@@H](NC(=O)C2(F)CC2)C(C)(C)C)c(OCCC2CCN(C(=O)CC(=O)Nc3cccc(Sc4ncc(N5CCC(C)(N)CC5)nc4N)c3Cl)CC2)c1 [Example 35, (2S,4R)—N-(2-(2-(1-(3-((3-((3-amino-5-(4-amino-4-methylpiperidin-1-yl)pyrazin-2-yl)thio)-2-chlorophenyl)amino)-3-oxopropanoyl)piperidin-4-yl)ethoxy)-4-(4-methylthiazol-5-yl)benzyl)-1-((S)-2-(1-fluorocyclopropane-1-carboxamido)-3,3-dimethylbutanoyl)-4-hydroxypyrrolidine-2-carboxamide]",74%,93%,93%
"Cc1ncsc1-c1ccc(CNC(=O)[C@@H]2C[C@@H](O)CN2C(=O)[C@@H](NC(=O)C2(F)CC2)C(C)(C)C)c(OCCCN2CCN(C(=O)CC(=O)Nc3cccc(Sc4cnc(N5CCC(C)(CN)CC5)cn4)c3Cl)[C@@H](C)C2)c1 [Example 64, (2S,4R)—N-(2-(3-((S)-4-(3-((3-((5-(4-(aminomethyl)-4-methylpiperidin-1-yl)pyrazin-2-yl)thio)-2-chlorophenyl)amino)-3-oxopropanoyl)-3-methylpiperazin-1-yl)propoxy)-4-(4-methylthiazol-5-yl)benzyl)-1-((S)-2-(1-fluorocyclopropane-1-carboxamido)-3,3-dimethylbutanoyl)-4-hydroxypyrrolidine-2-carboxamide]",45.9%,96.6%,–
"Cc1ncsc1-c1ccc(CNC(=O)[C@@H]2C[C@@H](O)CN2C(=O)[C@@H](NC(=O)C2(F)CC2)C(C)(C)C)c(OCCCN2CCC(CC(=O)Nc3cccc(Sc4cnc(N5CC[C@H](CN)C5)cn4)c3Cl)CC2)c1 [Example 11, (2S,4R)—N-(2-(3-(4-(2-((3-((5-((R)-3-(aminomethyl)pyrrolidin-1-yl)pyrazin-2-yl)thio)-2-chlorophenyl)amino)-2-oxoethyl)piperidin-1-yl)propoxy)-4-(4-methylthiazol-5-yl)benzyl)-1-((S)-2-(1-fluorocyclopropane-1-carboxamido)-3,3-dimethylbutanoyl)-4-hydroxypyrrolidine-2-carboxamide]",−8.9%,19.2%,35.9%
Cc1ncsc1-c1ccc(CNC(=O)[C@@H]2C[C@@H](O)CN2C(=O)[C@@H](NC(=O)C2(F)CC2)C(C)(C)C)c(OCCCN2CCN(C(=O)CC(=O)Nc3cccc(Sc4cnc(N5CCC(C)(CN)CC5)cn4)c3Cl)[C@H](C)C2)c1 [Example 65],31.6%,95.4%,–
"Cc1ncsc1-c1ccc(CNC(=O)[C@@H]2C[C@@H](O)CN2C(=O)[C@@H](NC(=O)C2(F)CC2)C(C)(C)C)c(OCC2CCN(C(=O)CC(=O)Nc3cccc(Sc4ncc(N5CCC(C)(N)CC5)nc4N)c3Cl)CC2)c1 [Example 30, (2S,4R)—N-(2-((1-(3-((3-((3-amino-5-(4-amino-4-methylpiperidin-1-yl)pyrazin-2-yl)thio)-2-chlorophenyl)amino)-3-oxopropanoyl)piperidin-4-yl)methoxy)-4-(4-methylthiazol-5-yl)benzyl)-1-((S)-2-(1-fluorocyclopropane-1-carboxamido)-3,3-dimethylbutanoyl)-4-hydroxypyrrolidine-2-carboxamide]",71.5%,95.5%,–
"Cc1ncsc1-c1ccc(CNC(=O)[C@@H]2C[C@@H](O)CN2C(=O)[C@@H](NC(=O)C2(F)CC2)C(C)(C)C)c(OCCN2CC3CCC(C2)N3C(=O)CC(=O)Nc2cccc(Sc3cnc(N4CCC(C)(CN)CC4)cn3)c2Cl)c1 [Example 68, (2S,4R)—N-(2-(2-(8-(3-((3-((5-(4-(aminomethyl)-4-methylpiperidin-1-yl)pyrazin-2-yl)thio)-2-chlorophenyl)amino)-3-oxopropanoyl)-3,8-diazabicyclo[3.2.1]octan-3-yl)ethoxy)-4-(4-methylthiazol-5-yl)benzyl)-1-((S)-2-(1-fluorocyclopropane-1-carboxamido)-3,3-dimethylbutanoyl)-4-hydroxypyrrolidine-2-carboxamide]",83.3%,98.3%,–
"COC(=O)[C@H]1CN(C(=O)CC(=O)Nc2cccc(Sc3cnc(N4CCC(C)(CN)CC4)cn3)c2Cl)CCN1CCOc1cc(-c2scnc2C)ccc1CNC(=O)[C@@H]1C[C@@H](O)CN1C(=O)[C@@H](NC(=O)C1(F)CC1)C(C)(C)C [Example 67, Methyl (R)-4-(3-((3-((5-(4-(aminomethyl)-4-methylpiperidin-1-yl)pyrazin-2-yl)thio)-2-chlorophenyl)amino)-3-oxopropanoyl)-1-(2-(2-(((2S,4R)-1-((S)-2-(1-fluorocyclopropane-1-carboxamido)-3,3-dimethylbutanoyl)-4-hydroxypyrrolidine-2-carboxamido)methyl)-5-(4-methylthiazol-5-yl)phenoxy)ethyl)piperazine-2-carboxylate]",68.3%,98.1%,–
